Measurements from patent publication US4526894A, “Pharmaceutically active 4-hydroxy-3-benzoyl-2-quinolone derivatives” (Nippon Shinyaku Co. Ltd., priority 1982, dated 1985).
Counter-ions that a name gives are not always drawn. Like-named read-outs stand apart in the source and are kept apart here.

What was measured:
[1] = system: passive cutaneous anaphylaxis (DNP-As antigen) in Wister strain rats; assay: passive cutaneous anaphylaxis (PCA) assay in rats; assay type: in vivo; settings: 10 mg/kg oral, one hour before antigen; for inhibition in vivo at 10 mg/kg: Rattus norvegicus, po, 1 h, read-out: PCA Inhibition Ratio %
Experimental: (i) Antiserum abundant in homocytotropic antibody is prepared by the same method as Tada and Okumura did (cf. Journal of Immunology, vol. 106, page 1002, 1976). Thus, 1 mg (calculated as an amount of protein) of DNP-As (2,4-dinitrophenyl-coupled ascaris extract) prepared by methods of Strejan and Campbell (Journal of Immunology, vol. 98, p. 893, 1971) and of Eisen (Journal of Amer. Chem. Soc., vol. 85, p 4593, 1953) and 1×10^10pertussis vaccine are administered to each paw of Wister strain rats (180 to 200 grams body weights) by dividing the dose by four. Five days later, 0.5 mg of DNP-As is administered into muscle of back. Eight days later from the initial immunization, blood is taken from descending aorta under anesthetizing with ether, the resulting serum is stored at -80° and is melted before use.
(ii) Effect of tested compounds is investigated as follows:
Anti-serum obtained by the method (i) is diluted with physiological saline solution double by double successively and 0.05 ml of each diluted solution is administered into back of Wister strain rats (140 to 160 grams body weight) subcutaneously. After 72 hours, a solution of 2 mg (calculated as protein) of DNP-As and 2.5 mg of Evans Blue dissolved in 1 ml of physiological saline solution is administered intraveously at a dose of 5 ml/kg. After 30 minutes from antigen solution administration, the animals are killed and diameters of blue spots appeared at the place where antiserum is administered are measured. The PCA test is conducted by the same method as already described using a diluted solutions of antiserum which always show 10 mm or more of spot diameters and the effect of the test compounds is judged. Thus antiserum diluted solutions are administered to two places in back. Test compounds are administered orally at the dose of 10 mg/kg one hour before administration of antigen solution. From the skin of reacted parts of killed animals, leaked or emitted dyestuff is extracted and the amount of the dyestuff is measured. The inhibition ratio is calculated by the following expression:
Inhibition Ratio=(1-A'/A)×100
in which A' is an amount of dyestuff in the group treated with the test compounds and A is that in the control group.

[2] = system: SRS-A (slow reacting substance of anaphylaxis); assay: Anti-SRS-A action using isolated ileus of guinea pigs
Experimental: Anti-SRS-As action (An anti-action against slow reacting substance of anaphylaxis).
Hartley strain male guinea pigs (300 to 350 grams body weight) are killed and 1.0 to 1.5 cm of ileus is immeidiately excised from ileocecal parts and is suspended in 10 ml of Tyrode solution (95% O2 -5% CO2 saturation) containing 10^-7 g/ml of atropine and 10^-6 g/ml of pyrilamine. SRS-A (20 units) (the amount of SRS-A showing the same shrinkage as 5 ng of histamine is defined as 1 unit) prepared by using sensitized guinea pig lung is given to cause shrinkage there. Then antagonistic action of test compounds treated five minutes ago against the shrinkage is measured and recorded via isotonic transducer.
Inhibition Ratio of Test Compd (%)=(1-A'/A)×100
in which A' is a height of shrinkage of SRS-A+test compound and A is that of SRS-A.

[3] = system: carrageenin edema in SD-strain rats; assay: Carrageenin edema at hind foot of rats (anti-inflammatory action); assay type: in vivo, rat; settings: for inhibition in vivo at 200 mg/kg: Rattus norvegicus, po, 3 h, read-out: % Inhibition of carrageenin edema
Experimental: The anti-inflammatory action of the compounds of the present invention were evaluated by measuring the inhibition against carrageein edema as set forth below.
Carrageenin edema at hind foot of rats:
SD-strain rats of body weights of around 150 grams were used, each group consisting of five rats. A solution (0.1 ml) of 0.5% carrageenin dissolved in physiological saline water was hypodermically injected into right hind foot pat of the rats and, one hour prior to the injection of carrageenin, 200 mg/kg of test compound was given per os. Foot volumes of the rats before the carrageenin treatment and those of three hours after the treatment were measured and the differences were compared with those of the control group to determine the effect of the compounds.

male mice = assay: Acute oral toxicity in mice (lethal ratio); assay type: in vivo; settings: 400 mg/kg oral, two weeks, four mice per group
Experimental: Acute toxicity was determined two weeks after oral administration of 400 mg/kg to male mice. Four mice (denominator) are used in each group and the dead numbers are given as the numerator. The compounds of the present invention show little, if any, toxicity.
Lethal ratios for all other compounds are 0/4 at doses of […]. It is therefore apparent that they are all safe compounds.

[4] = 200 mg/kg per os one hour before carrageenin, 3 hours after
[5] = 10^-6 M; guinea pig ileus, SRS-A 20 units; 5 min, 1 µM

## CCCCCCc1ccc2[nH]c(=O)c(C(=O)c3ccccc3)c(O)c2c1 [Example 55]
[1]
  inhibition in vivo at 10 mg/kg: 13.6%
[2]; 10^-6 M, guinea pig ileus, SRS-A 20 units, 5 min, 1 µM
  SRS-A Inhibition Ratio %: 85.6%
[3]; [4]
  % Inhibition of carrageenin edema: 10.0%

## O=C(O)c1ccc(C(=O)c2c(O)c3ccccc3[nH]c2=O)cc1 [Example 51, 3-(4-carboxybenzoyl)-4-hydroxy-2-quinolone]
[1]
  inhibition in vivo at 10 mg/kg: 7.4%
[2]; [5]
  SRS-A Inhibition Ratio %: 50.0%

## COC(=O)c1cccc2[nH]c(=O)c(C(=O)c3ccccc3)c(O)c12 [Example 3, Methyl 3-benzoyl-4-hydroxy-2-quinolone-5-carboxylate]
[1]
  inhibition in vivo at 10 mg/kg: 26.9%
[2]; [5]
  SRS-A Inhibition Ratio %: 26.4%
[3]; [4]
  inhibition in vivo at 200 mg/kg: 32.8%

## Cc1cc(C)c2[nH]c(=O)c(C(=O)c3ccccc3Cl)c(O)c2c1 [Example 37, 3-(2-chlorobenzoyl)-6,8-dimethyl-4-hydroxy-2-quinolone]
[1]
  inhibition in vivo at 10 mg/kg: 20.8%
[2]; [5]
  SRS-A Inhibition Ratio %: 28.3%

## COc1ccc(C(=O)c2c(O)c3ccc([N+](=O)[O-])cc3[nH]c2=O)cc1OC [Example 30, 3-(3,4-dimethoxybenzoyl)-4-hydroxy-7-nitro-2-quinolone]
[1]
  inhibition in vivo at 10 mg/kg: 18.7%
[2]; [5]
  SRS-A Inhibition Ratio %: 26.7%
[3]; [4]
  inhibition in vivo at 200 mg/kg: 21.3%

## COc1ccc(C(=O)c2c(O)c3cccc(C)c3[nH]c2=O)cc1OC [Example 31, 3-(3,4-dimethoxybenzoyl)-4-hydroxy-8-methyl-2-quinolone]
[1]
  inhibition in vivo at 10 mg/kg: 20.4%
[2]; [5]
  SRS-A Inhibition Ratio %: 20.5%
[3]; [4]
  inhibition in vivo at 200 mg/kg: 77.5%

## CCCCCc1ccc(C(=O)c2c(O)c3ccccc3[nH]c2=O)cc1 [Example 46, 4-hydroxy-3-(4-n-pentylbenzoyl)-2-quinolone]
[1]
  inhibition in vivo at 10 mg/kg: 3.2%
[2]; [5]
  SRS-A Inhibition Ratio %: 26.9%

## COc1ccc(C(=O)c2c(O)c3cc(C)ccc3[nH]c2=O)cc1OC [Example 29, 3-(3,4-dimethoxybenzoyl)-4-hydroxy-6-methyl-2-quinolone]
[1]
  inhibition in vivo at 10 mg/kg: 12.1%
[2]; [5]
  SRS-A Inhibition Ratio %: 42.1%

## COC(=O)c1cccc2c(O)c(C(=O)c3ccccc3)c(=O)[nH]c12 [Example 13]
[1]
  inhibition in vivo at 10 mg/kg: 25.7%
[2]; [5]
  SRS-A Inhibition Ratio %: 19.8%
Male mice
  Lethal Ratio (dead/treated): 1/4

## O=C(c1ccccc1)c1c(O)c2cc(Cl)ccc2[nH]c1=O [Example 1, 3-Benzoyl-6-chloro-4-hydroxy-2-quinolone]
[3]; [4]
  inhibition in vivo at 200 mg/kg: 42.1%

## Cc1ccc2[nH]c(=O)c(C(=O)c3ccccc3)c(O)c2c1 [Example 17, 3-benzoyl-4-hydroxy-6-methyl-2-quinolone]
[1]
  inhibition in vivo at 10 mg/kg: 35.4%
[2]; [5]
  SRS-A Inhibition Ratio %: 21.9%

## COc1ccc(C(=O)c2c(O)c3ccccc3[nH]c2=O)c(OC)c1 [Example 28, 3-(2,4-dimethoxybenzoyl)-4-hydroxy-2-quinolone]
[1]
  inhibition in vivo at 10 mg/kg: 21.2%
[2]; [5]
  SRS-A Inhibition Ratio %: 42.9%

## Cc1ccc2c(O)c(C(=O)c3ccccc3)c(=O)[nH]c2c1 [Example 18, 3-benzoyl-4-hydroxy-7-methyl-2-quinolone]
[1]
  inhibition in vivo at 10 mg/kg: 26%
[2]; [5]
  SRS-A Inhibition Ratio %: 21.3%

## O=C(c1ccccc1)c1c(O)c2ccc([N+](=O)[O-])cc2[nH]c1=O [Example 10, 3-benzoyl-4-hydroxy-7-nitro-2-quinolone]
[1]
  inhibition in vivo at 10 mg/kg: 33.4%
[2]; [5]
  SRS-A Inhibition Ratio %: 22.3%
Male mice
  Lethal Ratio (dead/treated): 0/4

## Cc1cc2[nH]c(=O)c(C(=O)c3ccccc3)c(O)c2cc1C [Example 20, 3,-benzoyl-6,7-dimethyl-4-hydroxy-2-quinolone]
[1]
  inhibition in vivo at 10 mg/kg: 17.4%
[2]; [5]
  SRS-A Inhibition Ratio %: 23.5%

## O=C(c1ccccc1)c1c(O)c2cccc(C(=O)O)c2[nH]c1=O [Example 16, 3-benzoyl-4-hydroxy-2-quinolone-8-carboxylic acid]
[1]
  inhibition in vivo at 10 mg/kg: 30.9%
[2]; [5]
  SRS-A Inhibition Ratio %: 22.4%
Male mice
  Lethal Ratio (dead/treated): 0/4

## Cc1ccc(C(=O)c2c(O)c3ccccc3[nH]c2=O)c(C)c1 [Example 43, 3-(2,4-dimethylbenzoyl)-4-hydroxy-2-quinolone]
[3]; [4]
  inhibition in vivo at 200 mg/kg: 15.7%

## O=C(c1ccccc1Cl)c1c(O)c2ccccc2[nH]c1=O [Example 35, 3-(2-chlorobenzoyl)-4-hydroxy-2-quinolone]
[1]
  inhibition in vivo at 10 mg/kg: 45.6%
[2]; [5]
  SRS-A Inhibition Ratio %: 32.6%
Male mice
  Lethal Ratio (dead/treated): 0/4

## O=C(c1cccc(C(F)(F)F)c1)c1c(O)c2ccccc2[nH]c1=O [Example 44, 4-hydroxy-3-(3-trifluoromethylbenzoyl)-2-quinolone]
[3]; [4]
  inhibition in vivo at 200 mg/kg: 15.9%

## COc1ccc(C(=O)c2c(O)c3ccccc3[nH]c2=O)cc1OC [Example 2, 3-(3,4-Dimethoxybenzoyl)-4-hydroxy-2-quinolone]
[1]
  inhibition in vivo at 10 mg/kg: 25.5%
[2]; [5]
  SRS-A Inhibition Ratio %: 24.2%

## O=C(c1ccc(Cl)cc1)c1c(O)c2ccccc2[nH]c1=O [Example 39, 3-(4-chlorobenzoyl)-4-hydroxy-2-quinolone]
[1]
  inhibition in vivo at 10 mg/kg: 19.8%
[2]; [5]
  SRS-A Inhibition Ratio %: 27.0%

## CCCCc1ccc2[nH]c(=O)c(C(=O)c3ccccc3)c(O)c2c1 [Example 22, 3-benzoy-6-n-butyl-4-hydroxy-2-quinolone]
[1]
  inhibition in vivo at 10 mg/kg: 17.4%
[2]; [5]
  SRS-A Inhibition Ratio %: 39.5%

## CC(C)c1ccc2[nH]c(=O)c(C(=O)c3ccccc3)c(O)c2c1 [Example 5, 3-Benzoyl-4-hydroxy-6-isopropyl-2-quinoline]
[3]; [4]
  inhibition in vivo at 200 mg/kg: 32.1%

## CC(C)c1ccc2[nH]c(=O)c(C(=O)c3ccc([N+](=O)[O-])cc3)c(O)c2c1 [Example 48, 4-hydroxy-6-isopropyl-3-(4-nitrobenzoyl)-2-quinolone]
[1]
  inhibition in vivo at 10 mg/kg: 8.6%
[3]; [4]
  inhibition in vivo at 200 mg/kg: 12.5%

## COc1ccc(C(=O)c2c(O)c3ccc([N+](=O)[O-])cc3[nH]c2=O)c(OC)c1OC [Example 54, 4-hydroxy-7-nitro-3-(2,3,4-trimethoxybenzoyl)-2-quinolone]
[3]; [4]
  inhibition in vivo at 200 mg/kg: 13.1%

## CCCCCCc1ccc2[nH]c(=O)c(C(=O)c3ccc(OC)cc3)c(O)c2c1 [Example 59]
[3]; [4]
  inhibition in vivo at 200 mg/kg: 12.8%

## COc1ccccc1C(=O)c1c(O)c2ccccc2[nH]c1=O [Example 24, 4-hydroxy-3-(2-methoxybenzoyl)-2-quinolone]
[1]
  inhibition in vivo at 10 mg/kg: 24.7%
[2]; [5]
  SRS-A Inhibition Ratio %: 20.2%

## CCCCCCc1ccc2[nH]c(=O)c(C(=O)c3ccccc3)c(O)c2c1 [Example 7, 3-Benzoyl-6-n-hexyl-4-hydroxy-2-quinolone sodium salt]
[1]; rat, sodium salt, 10 mg/kg
  PCA Inhibition Ratio %: 15.2%
[2]; 10^-6 M, guinea pig ileus, SRS-A 20 units, 5 min, 1 µM, sodium salt
  SRS-A Inhibition Ratio %: 91.2%

## CC(=O)Oc1ccccc1C(=O)O [Acetylsalicylic Acid, reference compound]
[3]
  inhibition in vivo at 200 mg/kg: 31.6%

## CC(C)c1ccc2[nH]c(=O)c(C(=O)c3ccccc3Cl)c(O)c2c1 [Example 36, 3-(2-chlorobenzoyl)-4-hydroxy-6-isopropyl-2-quinolone]
[1]
  inhibition in vivo at 10 mg/kg: 12.4%
[2]; [5]
  SRS-A Inhibition Ratio %: 60.0%
